# Laboratory results taken from paper PMC5433425 (PeerJ, 2017).
# Where two headings read alike, the source gives them in different places. Peptide text beside a SMILES is read from it. * marks the point of attachment. βNA = c1ccc2cc(N*)ccc2c1
# What was measured:
# E. coli AG100A = assay: microbe, parasite or virus in culture; format: cell-based, Escherichia coli; details: for MIC: Escherichia coli, AG100A
# Method: The minimum inhibitory concentrations (MICs) were determined using the broth microdilution method according to the CLSI guidelines ([Clinical and Laboratory Standards Institute, 2014]). […] Two-fold serial dilutions of the compounds were made to achieve the following concentrations: 320 µM–40 µM. The MICs were determined as the lowest concentration at which no visible growth was observed after 18 h of incubation at 37 °C. The assays were performed in triplicate and the MIC value was given as result of at least two concordant values.
# E. coli AG100tet = assay: EtBr efflux by real-time fluorometry; details: 80 µM
# Method: Control tubes with only cells and cells with and without 0.4% glucose were included. The fluorescence was measured in a Rotor-Gene 3000 and the data was acquired every 30 s for 30 min at 37 °C. The efflux activity was quantified by comparing the fluorescence data obtained under conditions that promote efflux (presence of glucose and absence of efflux inhibitor) with the data from the control in which the bacteria are under conditions of no efflux (presence of an inhibitor and no energy source).
structure (smiles),measurement,setting,value
NC(N)=NCCC[C@H](NC(=O)[C@@H](N)Cc1ccccc1)C(=O)Nc1ccc2ccccc2c1 [PAβN] (H-Phe-Arg-βNA),effect on OFX and EtBr MICs,E. coli AG100A; AG100A (pump-deficient strain),no effect
same,reduction in OXA MIC,E. coli AG100A; AG100A (pump-deficient strain),4 fold
same,reduction in TET MIC,E. coli AG100A; AG100A (pump-deficient strain),16 fold
same,MIC,E. coli AG100A; read-out: MIC of EtBr in presence of the efflux inhibitor,3.12 µg/mL
same,MIC,E. coli AG100A; read-out: MIC of OFX in presence of the efflux inhibitor,0.03 µg/mL
same,MIC,E. coli AG100A; read-out: MIC of OXA in presence of the efflux inhibitor,0.25 µg/mL
same,MIC,E. coli AG100A; read-out: MIC of TET in presence of the efflux inhibitor,0.03 µg/mL
same,"Fluorescence raw data, Channel Cycling A.530/585hp","E. coli AG100tet; cycle 1, + glucose",2.731
same,"Fluorescence raw data, Channel Cycling A.530/585hp","E. coli AG100tet; cycle 1, without glucose",3.207
same,"Fluorescence raw data, Channel Cycling A.530/585hp","E. coli AG100tet; cycle 2, + glucose",2.53
same,"Fluorescence raw data, Channel Cycling A.530/585hp","E. coli AG100tet; cycle 2, without glucose",3.035
same,"Fluorescence raw data, Channel Cycling A.530/585hp","E. coli AG100tet; cycle 3, + glucose",2.342
same,"Fluorescence raw data, Channel Cycling A.530/585hp","E. coli AG100tet; cycle 3, without glucose",2.872
same,"Fluorescence raw data, Channel Cycling A.530/585hp","E. coli AG100tet; cycle 4, without glucose",2.787
same,"Fluorescence raw data, Channel Cycling A.530/585hp","E. coli AG100tet; cycle 5, without glucose",2.697
same,"Fluorescence raw data, Channel Cycling A.530/585hp","E. coli AG100tet; cycle 6, without glucose",2.616
same,"Fluorescence raw data, Channel Cycling A.530/585hp","E. coli AG100tet; cycle 7, without glucose",2.625
same,"Fluorescence raw data, Channel Cycling A.530/585hp","E. coli AG100tet; cycle 8, without glucose",2.608
same,"Fluorescence raw data, Channel Cycling A.530/585hp","E. coli AG100tet; cycle 9, + glucose",1.745
same,"Fluorescence raw data, Channel Cycling A.530/585hp","E. coli AG100tet; cycle 9, without glucose",2.567
same,"Fluorescence raw data, Channel Cycling A.530/585hp","E. coli AG100tet; cycle 10, + glucose",1.7497
same,"Fluorescence raw data, Channel Cycling A.530/585hp","E. coli AG100tet; cycle 10, without glucose",2.517
same,"Fluorescence raw data, Channel Cycling A.530/585hp","E. coli AG100tet; cycle 11, + glucose",1.716
same,"Fluorescence raw data, Channel Cycling A.530/585hp","E. coli AG100tet; cycle 11, without glucose",2.463
same,"Fluorescence raw data, Channel Cycling A.530/585hp","E. coli AG100tet; cycle 12, + glucose",1.744
same,"Fluorescence raw data, Channel Cycling A.530/585hp","E. coli AG100tet; cycle 12, without glucose",2.462
same,"Fluorescence raw data, Channel Cycling A.530/585hp","E. coli AG100tet; cycle 13, + glucose",1.706
same,"Fluorescence raw data, Channel Cycling A.530/585hp","E. coli AG100tet; cycle 13, without glucose",2.458
same,"Fluorescence raw data, Channel Cycling A.530/585hp","E. coli AG100tet; cycle 14, + glucose",1.697
same,"Fluorescence raw data, Channel Cycling A.530/585hp","E. coli AG100tet; cycle 14, without glucose",2.431
same,"Fluorescence raw data, Channel Cycling A.530/585hp","E. coli AG100tet; cycle 15, + glucose",1.701
same,"Fluorescence raw data, Channel Cycling A.530/585hp","E. coli AG100tet; cycle 15, without glucose",2.375
same,"Fluorescence raw data, Channel Cycling A.530/585hp","E. coli AG100tet; cycle 16, + glucose",1.676
same,"Fluorescence raw data, Channel Cycling A.530/585hp","E. coli AG100tet; cycle 16, without glucose",2.373
same,"Fluorescence raw data, Channel Cycling A.530/585hp","E. coli AG100tet; cycle 17, + glucose",1.744
same,"Fluorescence raw data, Channel Cycling A.530/585hp","E. coli AG100tet; cycle 17, without glucose",2.339
same,"Fluorescence raw data, Channel Cycling A.530/585hp","E. coli AG100tet; cycle 18, + glucose",1.635
same,"Fluorescence raw data, Channel Cycling A.530/585hp","E. coli AG100tet; cycle 18, without glucose",2.379
same,"Fluorescence raw data, Channel Cycling A.530/585hp","E. coli AG100tet; cycle 19, + glucose",1.694
same,"Fluorescence raw data, Channel Cycling A.530/585hp","E. coli AG100tet; cycle 19, without glucose",2.342
same,"Fluorescence raw data, Channel Cycling A.530/585hp","E. coli AG100tet; cycle 20, + glucose",1.701
same,"Fluorescence raw data, Channel Cycling A.530/585hp","E. coli AG100tet; cycle 20, without glucose",2.323
same,"Fluorescence raw data, Channel Cycling A.530/585hp","E. coli AG100tet; cycle 21, + glucose",1.621
same,"Fluorescence raw data, Channel Cycling A.530/585hp","E. coli AG100tet; cycle 21, without glucose",2.26
same,"Fluorescence raw data, Channel Cycling A.530/585hp","E. coli AG100tet; cycle 22, + glucose",1.645
same,"Fluorescence raw data, Channel Cycling A.530/585hp","E. coli AG100tet; cycle 22, without glucose",2.252
same,"Fluorescence raw data, Channel Cycling A.530/585hp","E. coli AG100tet; cycle 23, + glucose",1.597
same,"Fluorescence raw data, Channel Cycling A.530/585hp","E. coli AG100tet; cycle 23, without glucose",2.314
same,"Fluorescence raw data, Channel Cycling A.530/585hp","E. coli AG100tet; cycle 24, + glucose",1.6798
same,"Fluorescence raw data, Channel Cycling A.530/585hp","E. coli AG100tet; cycle 24, without glucose",2.2447
same,"Fluorescence raw data, Channel Cycling A.530/585hp","E. coli AG100tet; cycle 25, + glucose",1.636
same,"Fluorescence raw data, Channel Cycling A.530/585hp","E. coli AG100tet; cycle 25, without glucose",2.272
same,"Fluorescence raw data, Channel Cycling A.530/585hp","E. coli AG100tet; cycle 26, + glucose",1.633
same,"Fluorescence raw data, Channel Cycling A.530/585hp","E. coli AG100tet; cycle 26, without glucose",2.288
same,"Fluorescence raw data, Channel Cycling A.530/585hp","E. coli AG100tet; cycle 27, + glucose",1.617
same,"Fluorescence raw data, Channel Cycling A.530/585hp","E. coli AG100tet; cycle 27, without glucose",2.2961
same,"Fluorescence raw data, Channel Cycling A.530/585hp","E. coli AG100tet; cycle 28, + glucose",1.668
same,"Fluorescence raw data, Channel Cycling A.530/585hp","E. coli AG100tet; cycle 28, without glucose",2.2127
same,"Fluorescence raw data, Channel Cycling A.530/585hp","E. coli AG100tet; cycle 29, + glucose",1.644
same,"Fluorescence raw data, Channel Cycling A.530/585hp","E. coli AG100tet; cycle 29, without glucose",2.236
same,"Fluorescence raw data, Channel Cycling A.530/585hp","E. coli AG100tet; cycle 30, + glucose",1.668
same,"Fluorescence raw data, Channel Cycling A.530/585hp","E. coli AG100tet; cycle 30, without glucose",2.282
same,"Fluorescence raw data, Channel Cycling A.530/585hp","E. coli AG100tet; cycle 31, + glucose",1.6751
same,"Fluorescence raw data, Channel Cycling A.530/585hp","E. coli AG100tet; cycle 31, without glucose",2.164
same,"Fluorescence raw data, Channel Cycling A.530/585hp","E. coli AG100tet; cycle 32, + glucose",1.6187
same,"Fluorescence raw data, Channel Cycling A.530/585hp","E. coli AG100tet; cycle 32, without glucose",2.166
same,"Fluorescence raw data, Channel Cycling A.530/585hp","E. coli AG100tet; cycle 33, + glucose",1.65
same,"Fluorescence raw data, Channel Cycling A.530/585hp","E. coli AG100tet; cycle 33, without glucose",2.197
